pIC50: −log10 of the molar value.
Test system: cancer cell lines
Test: Cancer cell proliferation activity of representative nucleosides, CellTiterGlo 72 h (Example 7, Tables 8 and 9)
Type: cell-based
Details: 72 h
Method: Dose response relationships on cell proliferation was assessed for representative nucleosides on cancer cell lines. Briefly, compound treatment of cells started one day after seeding with a final DMSO concentration of 0.1%, and was performed by nanodrop-dispensing using a Tecan Dispenser. 0.1% DMSO (solvent) and Staurosporine (10 μM) served as high control (100% viability) and low control (0% viability), respectively. Cells were cultured in the appropriate media. For the assays, cells were seeded in white cell culture-treated flat and clear bottom multiwell plates and incubated at 37° C. overnight before compound was added. After incubation for 72 h at 37° C. at 5% or 10% CO2 dependent on the medium, cell plates were equilibrated to room temperature for one hour, CellTiterGlo reagent (Promega) was added and luminescence was measured approximately an hour later using a luminometer.
Raw data were converted into percent cell viability relative to the high and low control, which were set to 100% and 0%, respectively.

A pIC50 (72 h, 5637, bladder) of 6.74, a pIC50 (CLS439, bladder) of 5.58 and a pIC50 (HS729, muscle) of 6.43 were found for `C[C@]1(CO)O[C@@H](n2ccc(N)nc2=O)C[C@@H]1O` [compound 30] in this work. For the same molecule, the pIC50 (J82, bladder) was 6.19, the pIC50 (JAR, placenta) was 5.28 and the pIC50 (MT3, breast) was 7.30. The pIC50 (PC3, prostate) was 6.82, the pIC50 (RD, muscle) was 6.10 and the pIC50 (T24, bladder) was 7.10. For the same molecule, the pIC50 (Homo sapiens, 22Rv1, 72 h, 22RV1, prostate) was 5.87, the pIC50 (Homo sapiens, 786-0, 72 h, 786O, kidney) was 6.42 and the pIC50 (Homo sapiens, A204, 72 h, A204, muscle) was 7.70. For the same molecule, the pIC50 (Homo sapiens, A549, 72 h, A549, lung) was 6.49, the pIC50 (Homo sapiens, A673, 72 h, A673, bone) was 6.30 and the pIC50 (Homo sapiens, A2780, 72 h, A2780, ovary) was 6.60. For the same molecule, the pIC50 (Homo sapiens, A-375, 72 h, A375, skin) was 6.48, the pIC50 (Homo sapiens, A-431, 72 h, A431, skin) was 6.55 and the pIC50 (Homo sapiens, ACHN, kidney) was 6.47. It also gave a pIC50 (Homo sapiens, ASPC1, 72 h, ASPC1, pancreas) of 6.89, a pIC50 (Homo sapiens, BT-20, 72 h, BT20, breast) of 6.17 and a pIC50 (Homo sapiens, BXPC-3, 72 h, BXPC3, pancreas) of 6.89. The pIC50 (Homo sapiens, C-33-A, C33A, endometrial) was 6.72, the pIC50 (Homo sapiens, CAKI-1, 72 h, CAKI1, kidney) was 7.15 and the pIC50 (Homo sapiens, COLO 205, 72 h, COLO205, colon) was 6.80. For the same molecule, the pIC50 (Homo sapiens, COLO-678, 72 h, COLO678, colon) was 5.77, the pIC50 (Homo sapiens, Ca-Ski, CASKI, endometrial) was 5.89 and the pIC50 (Homo sapiens, Caco-2, 72 h, CACO2, colon) was 5.53. The pIC50 (Homo sapiens, Calu-6, 72 h, CALU6, lung) was 6.30, the pIC50 (Homo sapiens, DLD-1, 72 h, DLD1, colon) was 6.24 and the pIC50 (Homo sapiens, DU-145, 72 h, DU145, prostate) was 6.55. The pIC50 (Homo sapiens, EFO-21, 72 h, EFO21, ovary) was 6.35, the pIC50 (Homo sapiens, EJ-28, 72 h, EJ28, bladder) was 5.99 and the pIC50 (Homo sapiens, Granta-519, 72 h, GRANTA-519, hematological) was 7.10. The pIC50 (Homo sapiens, HCT-15, 72 h, HCT15, colon) was 6.27, the pIC50 (Homo sapiens, HCT-116, 72 h, HCT116, colon) was 6.51 and the pIC50 (Homo sapiens, HEK293, 72 h, HEK293, kidney) was 4.96. It also gave a pIC50 (Homo sapiens, HL-60, 72 h, HL-60, hematological) of 6.44, a pIC50 (Homo sapiens, HT-29, 72 h, HT29, colon) of 6.39 and a pIC50 (Homo sapiens, HT-1080, 72 h, HT1080, connective tissue) of 6.57. It also gave a pIC50 (Homo sapiens, HeLa, endometrial) of 6.48, a pIC50 (Homo sapiens, HepG2, 72 h, HEPG2, liver) of 5.89 and a pIC50 (Homo sapiens, Hs-578T, HS578T, breast) of 6.04. For the same molecule, the pIC50 (Homo sapiens, IGROV-1, 72 h, IGROV1, ovary) was 6.28, the pIC50 (Homo sapiens, IMR-90, 72 h, IMR90, lung) was 5.67 and the pIC50 (Homo sapiens, JEG-3, 72 h, JEG3, placenta) was 5.90. For the same molecule, the pIC50 (Homo sapiens, JIMT-1, 72 h, JIMT1, breast) was 7.10, the pIC50 (Homo sapiens, K562, 72 h, K-562, hematological) was 5.84 and the pIC50 (Homo sapiens, Kasumi 1, 72 h, KASUMI-1, hematological) was 7.10. For the same molecule, the pIC50 (Homo sapiens, L-363, 72 h, L-363, hematological) was < 4.30, the pIC50 (Homo sapiens, LoVo, colon) was 6.47 and the pIC50 (Homo sapiens, MCF7, 72 h, MCF7, breast) was 5.71. The pIC50 (Homo sapiens, MDA-MB-231, 72 h, MDAMB231, breast) was 7.30, the pIC50 (Homo sapiens, MDA-MB-435, 72 h, MDAMB435, skin) was 6.09 and the pIC50 (Homo sapiens, MDA-MB-436, 72 h, MDAMB436, breast) was 6.51. For the same molecule, the pIC50 (Homo sapiens, MDA-MB-468, 72 h, MDAMB468, breast) was 6.54, the pIC50 (Homo sapiens, MG-63, 72 h, MG63, bone) was 6.42 and the pIC50 (Homo sapiens, MHH-ES-1, 72 h, MHHES1, bone) was 6.14. It also gave a pIC50 (Homo sapiens, MIA PaCa-2, 72 h, MIAPACA2, pancreas) of 6.27, a pIC50 (Homo sapiens, MINO, hematological) of 7.10 and a pIC50 (Homo sapiens, MV4-11, 72 h, MV4-11, hematological) of 6.24. The pIC50 (Homo sapiens, NCI-H23, 72 h, NCI-H23, lung) was 6.48, the pIC50 (Homo sapiens, NCI-H82, 72 h, NCIH82, lung) was 5.60 and the pIC50 (Homo sapiens, NCI-H292, 72 h, NCIH292, lung) was 6.55. For the same molecule, the pIC50 (Homo sapiens, NCI-H460, 72 h, NCIH460, ung) was 6.38, the pIC50 (Homo sapiens, OVCAR-3, 72 h, OVCAR3, ovary) was 6.42 and the pIC50 (Homo sapiens, OVCAR-4, 72 h, OVCAR4, ovary) was 5.98. It also gave a pIC50 (Homo sapiens, PANC-1, 72 h, PANC1, pancreas) of 5.94, a pIC50 (Homo sapiens, PLC-PRF-5, 72 h, PLCPRF5, liver) of 5.67 and a pIC50 (Homo sapiens, Panc1005, 72 h, PANC1005, pancreas) of 6.37. The pIC50 (Homo sapiens, Ramos, hematological) was 6.96, the pIC50 (Homo sapiens, SAOS-2, 72 h, SAOS2, bone) was 7.10 and the pIC50 (Homo sapiens, SF-268, 72 h, SF268, brain) was 6.82. It also gave a pIC50 (Homo sapiens, SF-295, 72 h, SF295, brain) of 6.14, a pIC50 (Homo sapiens, SK-BR-3, 72 h, SKBR3, breast) of 6.72 and a pIC50 (Homo sapiens, SK-HEP1, 72 h, SKHEP1, liver) of 6.92. The pIC50 (Homo sapiens, SK-LMS-1, 72 h, SKLMS1, uterus) was 5.87, the pIC50 (Homo sapiens, SK-MEL-5, 72 h, SKMEL5, skin) was 5.44 and the pIC50 (Homo sapiens, SK-MEL-28, 72 h, SKMEL28, skin) was 5.93. The pIC50 (Homo sapiens, SK-N-AS, SKNAS, brain) was 5.85, the pIC50 (Homo sapiens, SK-N-SH, SKNSH, brain) was < 4.30 and the pIC50 (Homo sapiens, SK-OV-3, 72 h, SKOV3, ovary) was 6.55. It also gave a pIC50 (Homo sapiens, SNB-75, 72 h, SNB75, brain) of 6.08, a pIC50 (Homo sapiens, SU-DHL10, 72 h, SU-DHL-10, hematological) of 6.44 and a pIC50 (Homo sapiens, SU-DHL-6, 72 h, SU-DHL-6, hematological) of 6.48. The pIC50 (Homo sapiens, SW-620, 72 h, SW620, colon) was 6.19, the pIC50 (Homo sapiens, TE-671, 72 h, TE671, muscle) was 6.36 and the pIC50 (Homo sapiens, THP-1, 72 h, THP-1, hematological) was 5.91. It also gave a pIC50 (Homo sapiens, U2OS, bone) of 6.17, a pIC50 (Homo sapiens, U-87 MG, U87MG, brain) of 6.48 and a pIC50 (Homo sapiens, UMUC3, 72 h, UMUC3, bladder) of 6.25. It also gave a pIC50 (Homo sapiens, UO-31, 72 h, UO31, kidney) of 6.82, a pIC50 (Homo sapiens, WSU-NHL, hematological) of 6.68 and a pIC50 (NCI-H358M, NCIH358M, lung) of 7.30. For the same molecule, the pIC50 (PBMC, hematological) was 5.99 and the pIC50 (RD-ES, RDES, bone) was 5.66.

— patent US20230293526A1, “METHOD FOR TREATING CANCER WITH A REVERSE TRANSCRIPTASE INHIBITOR” (PrimeFour Therapeutics, Inc., priority 2020, published 2023)
